How the values were obtained:
[1] = cited from earlier work; for hygroscopicity: crystalline polymorphic form; for interconversion of the polymorphic form: solvent system, humidity or heating
[2] = test system: TNFα; assay: TNFα ELISA of treated B cells; assay type: cell-based, human; conditions: activated CD19+ cells (FIG. 4)
Description: Human buffy coat (50 ml) was diluted with 50 ml sterile PBS (Ca^++, Mg^++ free), and mixed gently. A 25 ml aliquot of diluted buffy coat was transferred to each 50 ml centrifuge tube, and Histopaque-1077 (14 ml, #1077-1, Sigma) was gently layered into the bottom of the tube. The sample was centrifuged at 2,000 rpm for 30 min at room temperature. The interface containing mononuclear cells was transferred into 50 ml centrifuge tube, and washed once with PBS (1200 rpm, 5 min). The supernatant was discarded. Cell pellet was resuspended in Miltenyi buffer. Anti-CD19^+ microbeads were added to the suspension (10^7 cells in 80 μl of buffer, 20 μl antibody beads for 10^7 cells) and incubated for 15 min at 4° C. Cell pellet was washed once and resuspended in 1 ml Miltenyi buffer. The cell suspension was added to the magnetic column, washed with 10 ml Miltenyi buffer in the column. CD19^+ cells are released by 1 ml Miltenyi Buffer without magnetic field. CD19^+ cells were washed twice with RPMI complete medium. B cells (2×10^5) were plated in 96 well plate. […]
TNFα levels in 1,3-dioxo-(2,6-dioxopiperidin-3-yl)-4-aminoisoindoline or 1-oxo-(2,6-dioxopiperidin-3-yl)-4-aminoisoindoline treated B cells were determined using TNFα ELISA.

[3] = test system: CD69; assay: FACS analysis of CD69 expression in CD19+ B cells; assay type: cell-based, human
Description: (§1) Human buffy coat (50 ml) was diluted with 50 ml sterile PBS (Ca^++, Mg^++ free), and mixed gently. A 25 ml aliquot of diluted buffy coat was transferred to each 50 ml centrifuge tube, and Histopaque-1077 (14 ml, #1077-1, Sigma) was gently layered into the bottom of the tube. The sample was centrifuged at 2,000 rpm for 30 min at room temperature. The interface containing mononuclear cells was transferred into 50 ml centrifuge tube, and washed once with PBS (1200 rpm, 5 min). The supernatant was discarded. Cell pellet was resuspended in Miltenyi buffer. Anti-CD19^+ microbeads were added to the suspension (10^7 cells in 80 μl of buffer, 20 μl antibody beads for 10^7 cells) and incubated for 15 min at 4° C. Cell pellet was washed once and resuspended in 1 ml Miltenyi buffer. The cell suspension was added to the magnetic column, washed with 10 ml Miltenyi buffer in the column. CD19^+ cells are released by 1 ml Miltenyi Buffer without magnetic field. CD19^+ cells were washed twice with RPMI complete medium. B cells (2×10^5) were plated in 96 well plate.
B cells were treated with 1,3-dioxo-(2,6-dioxopiperidin-3-yl)-4-aminoisoindoline (FIG. 3A) or 1-oxo-(2,6-dioxopiperidin-3-yl)-4-aminoisoindoline (FIG. 3B) in presence of anti IgM, anti CD40 and IL-4 for 3 days. The suspension of B cells was washed by PBS once, and incubated with FITC conjugated anti human CD69 for 30 min in the dark. B cells were subject to FACS analysis using flow cytometer (EPICS XL-MCL, Beckman Coulter Company).
To assess whether the effects of immunomodulatory compounds on IL-4 signaling impact on IL-4 mediated B cell activation, FACS array of immediate early expression marker CD69 expression at triplicates and six doses was examined using 1,3-dioxo-(2,6dioxopiperidin-3-yl)-4-aminoisoindoline or 1-oxo-(2,6-dioxopiperidin-3-yl)-4-aminoisoindoline. […] Thus, it is clear that immunomodulatory compounds have no impact on this process.

[4] = test system: IgE synthesis; assay: IgE ELISA of human PBMC treated with anti CD40 and IL-4 for three weeks; assay type: cell-based; conditions: 504 h, human PBMCs in presence of CD40+IL-4 for three weeks (FIGS. 11A and B), read-out: IC50 of inhibition of IgE synthesis
Description: Human PBMCs (1×10^6/ml) were treated with immunomodulatory compounds in presence of anti-CD40 (2 ug/ml) and IL-4 (40 ng/ml) for three weeks. Fifty microliter of supernatant was used for IgE ELISA, following the manufacturer's instruction. The absorbance was read by ELISA reader at OD=450 nm.
IL-4 is a unique signal for B cells to produce IgE during the immunoglobulin class switch. To assess whether immunomodulatory compounds can regulated IgE synthesis, 1,3-dioxo-(2,6-dioxopiperidin-3-yl)-4-aminoisoindoline or 1-oxo-(2,6-dioxopiperidin-3-yl)-4-aminoisoindoline was incubated with human PBMCs in presence of CD40+IL-4 for three weeks. […] (FIGS. 11A and B).
Treatment of PBMC: 200 μl of 1×10^6/ml human PBMC were plated in 96 well plate, and the cells were pretreated with IMiDs at indicated concentrations (60, 6, 0.6, 0.06, 0.006, 0.0006 uM) for 30 minutes. Anti CD40 (#AHS4002, Biosource, 2 μg/ml) and IL-4 (#200-04, Pepro Tech, 40 ng/ml) were added to each well. Human PBMC in presence of IMiDs, anti CD40 and IL-4 were incubated for three weeks. Fifty microliters of supernatant was subjected to IgE ELISA.
IgE ELISA: The IgE ELISA Quantitation Kit was purchased from Bethyl Laboratories, Inc. (#E80-108). […] The ELISA plate was read at OD=450 nm in ELISA plate reader.

[5] = test system: B cells; assay: B cell proliferation by BrdU ELISA; assay type: cell-based, human; conditions: 3 days (FIG. 7A)
Description: as §1
B cells were pretreated with 1,3-dioxo-(2,6-dioxopiperidin-3-yl)-4-aminoisoindoline or 1-oxo-(2,6-dioxopiperidin-3-yl)-4-aminoisoindoline at the concentrations of 60 μM, 6 μM, 0.6 μM, 0.06 μM, 0.006 μM, and 0.0006 μM for 30 min, then were added 2 μg/ml of anti-IgM, 2 μg/ml of anti CD40, 40 ng/ml IL-4, 100 ng/ml of recombinant BAFF, and/or 0.5 μg/ml of LPS. B cells were typically treated with the immunomodulatory compound alone or in presence of one or more of above stimuli for 3 days. Stimulated B cells with or without the treatment with immunomodulatory compound were used for cell proliferation assay and cytokines analysis.
The crosslinking of B cell receptor antigen (“BCR”) is the primary signal for B cell activation in response to antigen, and is critical in initializing subsequent B cell activation, proliferation, and differentiation. To assess B cell activation, B cells were treated with 1,3-dioxo-(2,6-dioxopiperidin-3-yl)-4-aminoisoindoline or 1-oxo-(2,6-dioxopiperidin-3-yl)-4-aminoisoindoline in presence of stimuli for 3 days. 25 μl BrdU was added to 250 μl cell culture 24 hours before harvesting cells. B cells were dried at 60° C. after removal of labeling supernatant. 100 μl FixDenat solution was added to fix cells for 30 min at room temperature. FixDenat solution was removed by tapping plate, then 100 μl anti-BrdU-POD was added each well for 90 min, at room temperature, and the plate was washed three 3 times. 100 μl of substrate was added to plate for 10 min, then 100 μl stop solution was added. Absorbance was measured by using an ELISA microplate reader (Molecular Devices) at OD 450 nm. […]

Nc1cccc2c1CN(C1CCC(=O)NC1=O)C2=O (stereo not shown) [Form C, 3-(4-amino-1-oxo-1,3 dihydro-isoindol-2-yl)-piperidene-2,6-dione]
hygroscopicity [1]: not hygroscopic below about 85% RH
interconversion of the polymorphic form [1]: can convert to Form B at higher relative humidities

Nc1cccc2c1CN(C1CCC(=O)NC1=O)C2=O (stereo not shown) [Form A, 3-(4-amino-1-oxo-1,3 dihydro-isoindol-2-yl)-piperidene-2,6-dione]
relative stability of the polymorphic form ([1]; Form A among anhydrous polymorphs, Form E in aqueous solvent systems): most thermodynamically stable anhydrous polymorph
hygroscopicity [1]: weakly or not hygroscopic

Nc1cccc2c1CN(C1CCC(=O)NC1=O)C2=O (stereo not shown) [Form D, 3-(4-amino-1-oxo-1,3 dihydro-isoindol-2-yl)-piperidene-2,6-dione]
hygroscopicity [1]: either weakly or not hygroscopic
interconversion of the polymorphic form [1]: will typically convert to Form B when stressed at higher relative humidities

Nc1cccc2c1CN(C1CCC(=O)NC1=O)C2=O (stereo not shown) [1-oxo-(2,6-dioxopiperidin-3-yl)-4-aminoisoindoline]
TNFα production in B cells [2]: dose dependently enhance
CD69 expression ([3]; CD19+ B cells treated with anti human IgM, anti human CD40 and IL-4, 3 days (FIGS. 3A, 3B)): dose-dependently enhanced
CD69 expression ([3]; IL-4 stimulated CD19+ B cells, triplicates, six doses (FIGS. 10A and B)): neither immunomodulatory compound inhibited
IC50 [4]: 100 to 300 nM
B cell proliferation ([5]; combined with IgM (anti-IgM)): enhance
effect on B cell activation/proliferation ([5]; compound alone): minimal effect

Nc1cccc2c1CN(C1CCC(=O)NC1=O)C2=O (stereo not shown) [Form B, 3-(4-amino-1-oxo-1,3 dihydro-isoindol-2-yl)-piperidene-2,6-dione]
interconversion of the polymorphic form [1]: converts to Form E in aqueous solvent systems

— patent publication US8394832B2, “Methods and compositions using immunomodulatory compounds for the treatment of immunodeficiency disorders” (Celgene Corporation, priority 2004, dated 2013)
